Source: patent US20180008579A1, “PHARMACEUTICAL COMPOSITION FOR PREVENTING OR TREATING CHRONIC MYELOID LEUKEMIA AND METHOD USING THE SAME” (MEDPACTO INC., priority 2015, published 2018)

What was measured:
[1] = system: TT-CML affected mouse; assay: Flow cytometry of GFP/BCR-ABL+ KLS+ and KLS- cells in TT-CML affected mouse; type: in vivo; details: TEW-7197 2.5 mg/kg/day every three days, oral, 30 days, peripheral blood
Protocol: GFP/BCR-ABL^+c-Kit^+Lineage^−Sca-1^+(KLS^+) cells (bold box) and c-Kit^+Lineage^−Sca-1^− (KLS^−) cells (dotted box) in the peripheral blood were analyzed by flow cytometry, and the results are shown in FIG. 4A.

[2] = system: TKI-resistant T315I TT-CML affected mouse; assay: Flow cytometry of T315I BCR-ABL-GFP+ KLS+ and KLS- cells in TKI-resistant T315I TT-CML affected mouse; type: in vivo; details: ponatinib 15 mg/kg/day, TEW-7197 2.5 mg/kg/day every three days, oral, 30 days; peripheral blood; FIG. 5C
Protocol: T315I BCR-ABL-GFP^+KLS^+ cells (bold box) and KLS^− cells (dotted box) in the peripheral blood were analyzed by flow cytometry, and the results are shown in FIG. 5A.

[3] = system: TT-CML affected mouse; assay: Peripheral blood leukocyte number, spleen and cell lineage in drug-administered TT-CML affected mouse; type: in vivo; details: TEW-7197 2.5 mg/kg/day every three days, oral
Excerpt: The number of leukocyte in the peripheral blood of the drug-administered TT-CML affected mouse is shown in FIG. 3A (n=5, NS: not significant), a photograph of the spleen thereof is shown in FIG. 3B (bar: 10 mm), and the weight of the spleen thereof is shown in FIG. 3C (n=3). Further, percentages (%) of T cell (detected using anti-CD4 antibody and anti-CD8 antibody), B cell (detected using anti-B220 antibody), and bone marrow cell (detected using anti-Macl antibody and anti-Gr-1 antibody) among the total BCR-ABL1-GFP^+ cells in the peripheral blood of the TEW-7197-administered TT-CML affected mouse are shown in FIG. 3D (n=3, NS: not significant).

[4] = system: human CML-initiating cells; assay: Colony formation of human CML-initiating cells (CD34+CD38-Lin-) co-cultured with OP-9 stromal cells; type: cell-based; details: cells of three CML patients, co-culture with OP-9, 3% oxygen; combination compared to single treatment of dasatinib; FIGS. 6A-6C
Protocol: Bone marrow mononuclear cells (Allcells, Cat. No. 06-255, 06-620, and 147742, CA) of three patients with chronic CML were prepared. Bone marrow mononuclear cells were stained with anti-CD34(8G12) antibody (BD Biosciences), anti-CD38(HIT2) antibody (BD Biosciences), anti-CD3(SK7) antibody (BD Biosciences), anti-CD16(3G8) antibody (BD Biosciences), anti-CD19(SJ25C1) antibody (BD Biosciences), anti-CD20([…]) antibody (BD Biosciences), anti-CD14(MfP9) antibody (BD Biosciences), and anti-CD56(NCAM16.2) antibody (BD Biosciences). A mouse antibody cocktail recognizing CD3, CD16, CD19, CD20, CD14 and CD56 was used to identify Lineage^- (Lin^-) cells, and CD34^+CD38^-Lin^- cells were separated. […] A control group was prepared in the same manner, except that DMSO was used. Cells were harvested and washed with PBS, and then cultured in methyl cellulose (Stem cell technologies, GFM3434) to measure colony formation of human CML-initiating cells.

## Cc1cccc(-c2[nH]c(CNc3ccccc3F)nc2-c2ccc3ncnn3c2)n1 [TEW-7197, N-((4-([1,2,4]triazolo[1,5-a]pyridin-6-yl)-5-(6-methylpyridin-2-yl)-1H-imidazol-2-yl)methyl)-2-fluoroaniline]
[1]; FIG. 4C
  percentage of KLS+ cells among BCR-ABL1-GFP+ CML cells: remarkably decreased
[1]; dasatinib 5 mg/kg/day, FIG. 4B
  percentage of KLS- cells among BCR-ABL1-GFP+ CML cells: remarkably decreased
[2]
  percentage of T315I BCR-ABL-GFP+KLS+ cells: remarkably decreased
[3]; FIG. 3D
  differentiation of bone marrow cells among the BCR-ABL1-GFP+ cells in peripheral blood: did not affect differentiation of bone marrow cells
[3]; dasatinib 5 mg/kg/day, about 30 days, compared to vehicle, FIG. 3A
  number of leukocyte in the peripheral blood: increased
[3]; dasatinib 5 mg/kg/day, about 30 days, compared to vehicle, FIGS. 3B, 3C
  splenomegaly (spleen weight): promoted
[4]
  colony formation of human CML-initiating cells: significantly inhibited colony formation
